In PubChem BioAssay (NCI):
Values joined by “and” are separate entries in the source; they are usually repeats but may differ in a detail not shown here. Identical values can stand only once.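 Protocol summary: plate cells (96-well), add compound at 5 concentrations, incubate 48 h, interpolate endpoints linearly. GI50: concentration for 50% inhibition of growth. At the TGI there is no net growth.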 Where a SMILES comes first, the peptide text is derived from it. [ ]: non-standard residue; d: D form. The star is where a group is joined. hSer = N[CH](CCO)C(=O)O; Boc = CC(C)(C)OC(=O)*; Bn = c1ccc(C*)cc1

Columns and labels:
Assay in all cases: NCI anticancer screen, dose series, 48 h
NCI-H226 lung = tested on: NCI-H226 lung
CCRF-CEM leukemia = tested on: CCRF-CEM leukemia
HL-60(TB) leukemia = tested on: HL-60(TB) leukemia
HOP-92 NSCLC = tested on: HOP-92 NSCLC
SK-OV-3 ovarian = tested on: SK-OV-3 ovarian
NCI-H23 lung = tested on: NCI-H23 lung
SF-268 CNS = tested on: SF-268 CNS
UO-31 renal = tested on: UO-31 renal
MDA-MB-435 = tested on: MDA-MB-435
CAKI-1 renal = tested on: CAKI-1 renal
M14 melanoma = tested on: M14 melanoma
NCI-H522 lung = tested on: NCI-H522 lung
SW-620 colon = tested on: SW-620 colon
SK-MEL-2 melanoma = tested on: SK-MEL-2 melanoma
KM12 colon = tested on: KM12 colon
COLO 205 colon = tested on: COLO 205 colon
SNB-19 CNS = tested on: SNB-19 CNS
OVCAR-3 ovarian = tested on: OVCAR-3 ovarian
SF-295 CNS = tested on: SF-295 CNS
NCI-H460 lung = tested on: NCI-H460 lung
BT-549 breast = tested on: BT-549 breast
A498 renal = tested on: A498 renal
HCT-15 colon = tested on: HCT-15 colon
HOP-62 NSCLC = tested on: HOP-62 NSCLC
OVCAR-5 ovarian = tested on: OVCAR-5 ovarian
TK-10 renal = tested on: TK-10 renal
HS 578T breast = tested on: HS 578T breast
MALME-3M melanoma = tested on: MALME-3M melanoma
786-0 renal = tested on: 786-0 renal
ACHN renal = tested on: ACHN renal
MCF7 breast = tested on: MCF7 breast
HCT-116 colon = tested on: HCT-116 colon
LOX IMVI melanoma = tested on: LOX IMVI melanoma
HT29 colon = tested on: HT29 colon
MOLT-4 leukemia = tested on: MOLT-4 leukemia
U251 CNS = tested on: U251 CNS
A549 NSCLC = tested on: A549 NSCLC
MDA-MB-231 breast = tested on: MDA-MB-231 breast
T-47D breast = tested on: T-47D breast
OVCAR-4 ovarian = tested on: OVCAR-4 ovarian
OVCAR-8 ovarian = tested on: OVCAR-8 ovarian
EKVX NSCLC = tested on: EKVX NSCLC
RXF 393 renal = tested on: RXF 393 renal
SNB-75 CNS = tested on: SNB-75 CNS
PC-3 prostate = tested on: PC-3 prostate
UACC-257 melanoma = tested on: UACC-257 melanoma
DU-145 prostate = tested on: DU-145 prostate
NCI/ADR-RES ovarian = tested on: NCI/ADR-RES ovarian
IGROV1 ovarian = tested on: IGROV1 ovarian

SMILES: Oc1c(Cl)c(Cl)c(Cl)c(Cl)c1Cl (tested in a mixture with another compound)
- TGI (NCI-H226 lung): 41.7 µM
- TGI (CCRF-CEM leukemia): 62.3 µM
- TGI (HL-60(TB) leukemia): 39 µM and 10 µM

SMILES: CC(C)CC(NC(=O)OC(C)(C)C)C(=O)NC(CCOCc1ccccc1)C(N)=O (stereo not drawn) (Boc-Leu-[hSer](Bn)-NH2; configuration not given here)
- GI50 (HOP-92 NSCLC): 21.4 µg/mL
- TGI (HOP-92 NSCLC): 57.4 µg/mL
- GI50 (SK-OV-3 ovarian): 46.1 µg/mL

SMILES: CCCCCCCCCCCCCCCCNCCC[C@@H](C)[C@H]1CC[C@H]2[C@@H]3[C@H](OCCCN)C[C@@H]4C[C@H](OCCCN)CC[C@]4(C)[C@H]3C[C@H](OCCCN)[C@]12C
- GI50 (NCI-H23 lung): 2.39 µM
- TGI (NCI-H23 lung): 5.4 µM
- GI50 (SF-268 CNS): 2.17 µM
- TGI (SF-268 CNS): 4.95 µM
- GI50 (UO-31 renal): 2.53 µM
- TGI (UO-31 renal): 5.21 µM
- GI50 (MDA-MB-435): 2.28 µM
- TGI (MDA-MB-435): 6.57 µM
- GI50 (CAKI-1 renal): 1.9 µM
- TGI (CAKI-1 renal): 4.58 µM
- GI50 (M14 melanoma): 2.5 µM
- TGI (M14 melanoma): 5.65 µM
- GI50 (NCI-H522 lung): 2.25 µM
- TGI (NCI-H522 lung): 5.36 µM
- GI50 (SW-620 colon): 2.18 µM
- TGI (SW-620 colon): 4.94 µM
- GI50 (SK-MEL-2 melanoma): 2.48 µM
- TGI (SK-MEL-2 melanoma): 5.35 µM
- GI50 (KM12 colon): 2.18 µM
- TGI (KM12 colon): 5.03 µM
- GI50 (COLO 205 colon): 2.52 µM
- TGI (COLO 205 colon): 5.13 µM

SMILES: COC1=CC(c2ccc[nH]2)=N/C1=C\c1[nH]c(C)c(CC(=O)OCc2ccccc2)c1C
- GI50 (SNB-19 CNS): 0.671 µM
- TGI (SNB-19 CNS): 12.4 µM
- GI50 (OVCAR-3 ovarian): 0.31 µM
- TGI (OVCAR-3 ovarian): 1.41 µM
- GI50 (SF-295 CNS): 0.252 µM
- TGI (SF-295 CNS): 1.1 µM
- GI50 (NCI-H460 lung): 0.327 µM
- TGI (NCI-H460 lung): 1.72 µM
- GI50 (HOP-92 NSCLC): 0.244 µM
- TGI (HOP-92 NSCLC): 0.81 µM
- GI50 (BT-549 breast): 0.432 µM
- TGI (BT-549 breast): 3.08 µM
- GI50 (A498 renal): 0.433 µM
- TGI (A498 renal): 2.3 µM
- GI50 (HCT-15 colon): 0.292 µM
- TGI (HCT-15 colon): 1.1 µM
- GI50 (NCI-H23 lung): 0.399 µM
- TGI (NCI-H23 lung): 2.98 µM
- GI50 (SF-268 CNS): 0.358 µM
- TGI (SF-268 CNS): 2.56 µM
- GI50 (HOP-62 NSCLC): 0.374 µM
- TGI (HOP-62 NSCLC): 2.27 µM
- GI50 (UO-31 renal): 0.193 µM
- TGI (UO-31 renal): 0.398 µM
- GI50 (MDA-MB-435): 0.369 µM
- TGI (MDA-MB-435): 1.42 µM
- GI50 (OVCAR-5 ovarian): 1.11 µM
- TGI (OVCAR-5 ovarian): 5.38 µM
- GI50 (TK-10 renal): 0.351 µM
- TGI (TK-10 renal): 2.11 µM
- GI50 (HS 578T breast): 0.362 µM
- TGI (HS 578T breast): 2.26 µM
- GI50 (MALME-3M melanoma): 0.578 µM
- TGI (MALME-3M melanoma): 2.1 µM
- GI50 (786-0 renal): 0.299 µM
- TGI (786-0 renal): 1.19 µM
- GI50 (ACHN renal): 0.296 µM
- TGI (ACHN renal): 0.886 µM
- GI50 (MCF7 breast): 0.397 µM
- TGI (MCF7 breast): 2.85 µM
- GI50 (SK-OV-3 ovarian): 0.457 µM
- TGI (SK-OV-3 ovarian): 2.77 µM
- GI50 (HCT-116 colon): 0.219 µM
- TGI (HCT-116 colon): 1.05 µM
- GI50 (CAKI-1 renal): 0.307 µM
- TGI (CAKI-1 renal): 2.27 µM
- GI50 (LOX IMVI melanoma): 0.214 µM
- TGI (LOX IMVI melanoma): 0.753 µM
- GI50 (HT29 colon): 0.205 µM
- TGI (HT29 colon): 1.41 µM
- GI50 (MOLT-4 leukemia): 0.23 µM
- TGI (MOLT-4 leukemia): 1.27 µM
- GI50 (U251 CNS): 0.319 µM
- TGI (U251 CNS): 1.73 µM
- GI50 (A549 NSCLC): 0.361 µM
- TGI (A549 NSCLC): 6.05 µM
- GI50 (M14 melanoma): 0.233 µM
- TGI (M14 melanoma): 0.59 µM
- GI50 (MDA-MB-231 breast): 0.144 µM
- TGI (MDA-MB-231 breast): 0.859 µM
- GI50 (T-47D breast): 0.251 µM
- TGI (T-47D breast): 1.08 µM
- GI50 (OVCAR-4 ovarian): 0.256 µM
- TGI (OVCAR-4 ovarian): 5.17 µM
- GI50 (NCI-H522 lung): 0.273 µM
- TGI (NCI-H522 lung): 1.86 µM
- GI50 (NCI-H226 lung): 0.33 µM
- TGI (NCI-H226 lung): 2.31 µM
- GI50 (OVCAR-8 ovarian): 0.362 µM
- TGI (OVCAR-8 ovarian): 1.27 µM
- GI50 (SW-620 colon): 0.366 µM
- TGI (SW-620 colon): 1.79 µM
- GI50 (EKVX NSCLC): 0.351 µM
- TGI (EKVX NSCLC): 2.06 µM
- GI50 (RXF 393 renal): 0.43 µM
- TGI (RXF 393 renal): 2.07 µM
- GI50 (SK-MEL-2 melanoma): 0.198 µM
- TGI (SK-MEL-2 melanoma): 0.51 µM
- GI50 (SNB-75 CNS): 0.217 µM
- TGI (SNB-75 CNS): 0.777 µM
- GI50 (CCRF-CEM leukemia): 0.184 µM
- TGI (CCRF-CEM leukemia): 1.94 µM
- GI50 (KM12 colon): 0.272 µM
- TGI (KM12 colon): 2.28 µM
- GI50 (PC-3 prostate): 0.299 µM
- TGI (PC-3 prostate): 10.3 µM
- GI50 (UACC-257 melanoma): 0.605 µM
- TGI (UACC-257 melanoma): 2.24 µM
- GI50 (DU-145 prostate): 0.324 µM
- TGI (DU-145 prostate): 10.9 µM
- GI50 (HL-60(TB) leukemia): 0.537 µM
- TGI (HL-60(TB) leukemia): 2.44 µM
- GI50 (NCI/ADR-RES ovarian): 0.444 µM
- TGI (NCI/ADR-RES ovarian): 1.97 µM
- GI50 (IGROV1 ovarian): 0.325 µM
- TGI (IGROV1 ovarian): 1.34 µM
- GI50 (COLO 205 colon): 0.24 µM
- TGI (COLO 205 colon): 1.27 µM
